Test results taken from patent US11040066B2, “Topical composition for use in the treatment of burns” (Safeguard Medical Holdco, LLC, priority 2017, dated 2021).

Assay: Gamma radiation resistance of gel formulas (Rounds 1-5)
Format: physicochemical
Details: Round 1; summary in words
Excerpt: Following several failed attempts to formulate a composition with suitable viscosity and other properties to function as a burn treatment, the Inventors obtained stable compositions which were sent for testing to assess stability under gamma radiation.
OVERVIEW: To incorporate: Polyaminopropyl biguanide (INCI name); Chemical name: Polyhexamethylene Biguanide Hydrochloride (PHMB) and later Oriel sea mineral complex into a gel formula that can withstand the impact of gamma radiation sterilisation.
5 rounds of formulas were sent out for gamma radiations as outlined below.
Round 1 Summary: Started with our current BD (Burn Dressing) Gel with hyaluronic acid (HA) formula to which various ingredients were added.
Carbopol is the thickening agent used in BD Gel with HA, the only experiment in round 1 to which PHMB was added.
Round 2 Summary: Since PHMB was incompatible with Carbopol, new formulas containing various other thickeners were tried. Since propylene glycol, a humectant helped, another humectant (propanediol) was tried. For all the experimental batches made, only the stable formulas were sent out for gamma radiation. Only some of round 2 formulas contain PHMB (20% solution) @0.2% […]
In round 5, the final formula was determined from a selection of which were sent out for gamma radiation with acceptable results. […]

Change following gamma radiation: little or no change
Structure (SMILES): CC(O)CO (stereo not shown) [propylene glycol, 1,2-Propanediol]
